Data published in the supplement of paper PMC9663587.

The molecules below were run on SUM190PT (assay: GRmax, 72 h; higher = less effect;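 further: breast cell lines in 384-well plates, nine doses across a 10^4 range, Dye Drop imaging of viable cells vs DMSO and time-zero plates, GR 0 means no net growth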).

SMILES | GRmax, 72 h [GR]
CC[C@@H]1C(=O)N(C)c2cnc(Nc3ccc(C(=O)N[C@H]4CC[C@H](N5CCN(CC6CC6)CC5)CC4)cc3OC)nc2N1C(C)C [Volasertib/BI6727] (max 1 µM) | -0.309
O=C(CCCCCCC(=O)Nc1ccccc1)NO [Vorinostat] (max 10 µM) | -0.431
C=CC(=O)Nc1ccc(C(=O)Nc2[nH]nc3c2CN(C(=O)N[C@H](CN(C)C)c2ccccc2)C3(C)C)cc1 [YKL-5-124] (max 10 µM) | -0.39
CN1CCN(C(=O)c2ccc3cc(CCNc4ncnc5ccc(C#N)cc45)ccc3c2)CC1 [senexin b] (max 10 µM) | 0.248

These molecules were tested on SKBR3 (assay: GRmax, 72 h; higher = less effect;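 further: breast cell lines in 384-well plates, nine doses across a 10^4 range, Dye Drop imaging of viable cells vs DMSO and time-zero plates, GR 0 means no net growth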).

SMILES | GRmax, 72 h [GR]
O=C1NC(=NCc2cccs2)SC1=Cc1ccc2ncccc2c1 [R0-3306] (max 10 µM) | -0.0433
CNCc1ccc(-c2[nH]c3cc(F)cc4c3c2CCNC4=O)cc1 [Rucaparib] (max 10 µM) | 0.757
CC1(N)CCN(c2cnc(-c3cccc(Cl)c3Cl)c(N)n2)CC1 [SHP099] (max 10 µM) | 1.02
CN1CCN(CCOc2cc(OC3CCOCC3)c3c(Nc4c(Cl)ccc5c4OCO5)ncnc3c2)CC1 [Saracatinib/AZD0530] (max 10 µM) | 0.279
Cc1cc(C(C)Nc2ccccc2)c2nc(N3CCOCC3)cc(=O)n2c1 (centres undefined) [TGX221] (max 10 µM) | 0.75
CN(C)C/C=C/C(=O)Nc1ccc(C(=O)Nc2cccc(Nc3ncc(Cl)c(-c4c[nH]c5ccccc45)n3)c2)cc1 [THZ1] (max 1 µM) | -0.789
CN(C)C/C=C/C(=O)Nc1ccc(C(=O)N2CCC[C@@H](Nc3ncc(Cl)c(-c4c[nH]c5ccccc45)n3)C2)cc1 [THZ531] (max 1 µM) | -0.619
CN(C)C/C=C/C(=O)Nc1ccc(C(=O)Nc2cccc(Nc3cc(-c4c[nH]c5ccccc45)ncn3)c2)cc1 [THZ-P1-2] (max 10 µM) | -0.777
Cc1nc(-c2cn3c(n2)-c2ccc(-c4cnn(C(C)(C)C(N)=O)c4)cc2OCC3)n(C(C)C)n1 [Taselisib/GDC0032] (max 10 µM) | -0.207
O=C1NC(=O)[C@@H](c2cn3c4c(cccc24)CCC3)[C@@H]1c1c[nH]c2ccccc12 [Tivantinib/ARQ197] (max 10 µM) | -0.352
Nc1ccc(-c2ccc3ncc4ccc(=O)n(-c5cccc(C(F)(F)F)c5)c4c3c2)cn1 [Torin2] (max 1 µM) | -0.342
CC[C@@H]1C(=O)N(C)c2cnc(Nc3ccc(C(=O)N[C@H]4CC[C@H](N5CCN(CC6CC6)CC5)CC4)cc3OC)nc2N1C(C)C [Volasertib/BI6727] (max 1 µM) | -0.349
O=C(CCCCCCC(=O)Nc1ccccc1)NO [Vorinostat] (max 10 µM) | -0.632
C=CC(=O)Nc1ccc(C(=O)Nc2[nH]nc3c2CN(C(=O)N[C@H](CN(C)C)c2ccccc2)C3(C)C)cc1 [YKL-5-124] (max 10 µM) | -0.602
CN1CCN(C(=O)c2ccc3cc(CCNc4ncnc5ccc(C#N)cc45)ccc3c2)CC1 [senexin b] (max 10 µM) | 0.797

What follows are molecules tested on HS578T (assay: GRmax, 72 h; higher = less effect;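 further: breast cell lines in 384-well plates, nine doses across a 10^4 range, Dye Drop imaging of viable cells vs DMSO and time-zero plates, GR 0 means no net growth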).

SMILES | GRmax, 72 h [GR]
O=C1NC(=NCc2cccs2)SC1=Cc1ccc2ncccc2c1 [R0-3306] (max 10 µM) | -0.0503
CNCc1ccc(-c2[nH]c3cc(F)cc4c3c2CCNC4=O)cc1 [Rucaparib] (max 10 µM) | 0.683
CC1(N)CCN(c2cnc(-c3cccc(Cl)c3Cl)c(N)n2)CC1 [SHP099] (max 10 µM) | 0.632
CN1CCN(CCOc2cc(OC3CCOCC3)c3c(Nc4c(Cl)ccc5c4OCO5)ncnc3c2)CC1 [Saracatinib/AZD0530] (max 10 µM) | 0.189
Cc1cc(C(C)Nc2ccccc2)c2nc(N3CCOCC3)cc(=O)n2c1 (centres undefined) [TGX221] (max 10 µM) | 0.709
CN(C)C/C=C/C(=O)Nc1ccc(C(=O)Nc2cccc(Nc3ncc(Cl)c(-c4c[nH]c5ccccc45)n3)c2)cc1 [THZ1] (max 1 µM) | -0.371
CN(C)C/C=C/C(=O)Nc1ccc(C(=O)N2CCC[C@@H](Nc3ncc(Cl)c(-c4c[nH]c5ccccc45)n3)C2)cc1 [THZ531] (max 1 µM) | -0.246
CN(C)C/C=C/C(=O)Nc1ccc(C(=O)Nc2cccc(Nc3cc(-c4c[nH]c5ccccc45)ncn3)c2)cc1 [THZ-P1-2] (max 10 µM) | 0.92
Cc1nc(-c2cn3c(n2)-c2ccc(-c4cnn(C(C)(C)C(N)=O)c4)cc2OCC3)n(C(C)C)n1 [Taselisib/GDC0032] (max 10 µM) | -0.0179
O=C1NC(=O)[C@@H](c2cn3c4c(cccc24)CCC3)[C@@H]1c1c[nH]c2ccccc12 [Tivantinib/ARQ197] (max 10 µM) | -0.32
Nc1ccc(-c2ccc3ncc4ccc(=O)n(-c5cccc(C(F)(F)F)c5)c4c3c2)cn1 [Torin2] (max 1 µM) | -0.217
CC[C@@H]1C(=O)N(C)c2cnc(Nc3ccc(C(=O)N[C@H]4CC[C@H](N5CCN(CC6CC6)CC5)CC4)cc3OC)nc2N1C(C)C [Volasertib/BI6727] (max 1 µM) | -0.312
O=C(CCCCCCC(=O)Nc1ccccc1)NO [Vorinostat] (max 10 µM) | -0.169
C=CC(=O)Nc1ccc(C(=O)Nc2[nH]nc3c2CN(C(=O)N[C@H](CN(C)C)c2ccccc2)C3(C)C)cc1 [YKL-5-124] (max 10 µM) | -0.445
CN1CCN(C(=O)c2ccc3cc(CCNc4ncnc5ccc(C#N)cc45)ccc3c2)CC1 [senexin b] (max 10 µM) | 0.765

Each molecule was assayed on MDAMB468 (assay: GRmax, 72 h; higher = less effect;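 further: breast cell lines in 384-well plates, nine doses across a 10^4 range, Dye Drop imaging of viable cells vs DMSO and time-zero plates, GR 0 means no net growth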).

SMILES | GRmax, 72 h [GR]
O=C1NC(=NCc2cccs2)SC1=Cc1ccc2ncccc2c1 [R0-3306] (max 10 µM) | -0.271
CNCc1ccc(-c2[nH]c3cc(F)cc4c3c2CCNC4=O)cc1 [Rucaparib] (max 10 µM) | 0.345
CC1(N)CCN(c2cnc(-c3cccc(Cl)c3Cl)c(N)n2)CC1 [SHP099] (max 10 µM) | 0.567
CN1CCN(CCOc2cc(OC3CCOCC3)c3c(Nc4c(Cl)ccc5c4OCO5)ncnc3c2)CC1 [Saracatinib/AZD0530] (max 10 µM) | 0.178
Cc1cc(C(C)Nc2ccccc2)c2nc(N3CCOCC3)cc(=O)n2c1 (centres undefined) [TGX221] (max 10 µM) | 0.723
CN(C)C/C=C/C(=O)Nc1ccc(C(=O)Nc2cccc(Nc3ncc(Cl)c(-c4c[nH]c5ccccc45)n3)c2)cc1 [THZ1] (max 1 µM) | -0.377
CN(C)C/C=C/C(=O)Nc1ccc(C(=O)N2CCC[C@@H](Nc3ncc(Cl)c(-c4c[nH]c5ccccc45)n3)C2)cc1 [THZ531] (max 1 µM) | -0.153
CN(C)C/C=C/C(=O)Nc1ccc(C(=O)Nc2cccc(Nc3cc(-c4c[nH]c5ccccc45)ncn3)c2)cc1 [THZ-P1-2] (max 10 µM) | -0.523
Cc1nc(-c2cn3c(n2)-c2ccc(-c4cnn(C(C)(C)C(N)=O)c4)cc2OCC3)n(C(C)C)n1 [Taselisib/GDC0032] (max 10 µM) | 0.0046
O=C1NC(=O)[C@@H](c2cn3c4c(cccc24)CCC3)[C@@H]1c1c[nH]c2ccccc12 [Tivantinib/ARQ197] (max 10 µM) | -0.455
Nc1ccc(-c2ccc3ncc4ccc(=O)n(-c5cccc(C(F)(F)F)c5)c4c3c2)cn1 [Torin2] (max 1 µM) | -0.0415
CC[C@@H]1C(=O)N(C)c2cnc(Nc3ccc(C(=O)N[C@H]4CC[C@H](N5CCN(CC6CC6)CC5)CC4)cc3OC)nc2N1C(C)C [Volasertib/BI6727] (max 1 µM) | -0.449
O=C(CCCCCCC(=O)Nc1ccccc1)NO [Vorinostat] (max 10 µM) | -0.119
C=CC(=O)Nc1ccc(C(=O)Nc2[nH]nc3c2CN(C(=O)N[C@H](CN(C)C)c2ccccc2)C3(C)C)cc1 [YKL-5-124] (max 10 µM) | -0.493
CN1CCN(C(=O)c2ccc3cc(CCNc4ncnc5ccc(C#N)cc45)ccc3c2)CC1 [senexin b] (max 10 µM) | 0.132
